The source of these data is US12000833B2, “Marker for predicting the sensitivity to PI3K inhibitors” (INSERM (INSTITUT NATIONAL DE LA SANTE ET DE LA RECHERCHE …, priority 2017, dated 2024).

Data set [1] concerns phosphorylation of Akt. Briefly: RTK-driven (EGF) or GPCR-driven (LPA) short-term phosphorylation of Akt. The data set is classed as cell-based, human. The settings on record: data not shown. An excerpt: (§1) In pancreatic cancer, PI3K signalling is associated with a poor prognosis. […] However, this was not always coupled to a significant increase in the phosphorylation levels of canonical targets, pPRAS40 or pS6K, in all patients (data not shown), emphasizing the importance of other signalling targets downstream PI3Ks. Long-term inhibition of a core signal node is believed to induce an adaptive modification of the entire signal network. We tested if long-term inhibition of each PI3K isoforms induces a differential change in pancreatic cancer cell adaptation. To answer this question, we devise a strategy to globally identify this adaptive response focusing on phospho-site regulated signalling pathways (data not shown). […] Serum, which consist of a combination of RTK and GPCR stimuli mimicking physiopathological signalling, induces after 10 min a significant activation of class I PI3Ks as assessed by the phosphorylation of Akt and known downstream effectors PRAS40, S6K, S6 (data not shown). […] We thus chose these stimulation conditions to identify differential phosphoproteome across time in response to three PI3K iso form-selective drugs after SILAC metabolic labelling and enrichment in trypsine-based phosphopeptides by TiO2 beads allowing a robust S/T/Y phosphorylation quantification of thousands of proteins.

The test system of data set [2] is phosphorylation of Akt. Briefly: Serum (FBS)-stimulated phosphorylation of Akt and downstream effectors in Capan-1 cells. The class given is cell-based, human. Particulars: Capan-1, after 10 min stimulation with serum. The protocol:
Light amino acid-labelled and heavy amino acid-labelled Capan-1 cells (respectively called thereafter “light” and “heavy” cells) were washed twice with phosphate buffer saline (PBS; SIGMA; D8537), trypsined (GE Healthcare; L11-002) and plated at a concentration of 2.5.10^6 cells in a 14.4 cm-diameter dish (Dutscher, 055063). After 48 h, cells were serum-starved during 16 h, over-night. Light and heavy cells were pre-treated respectively with inhibitors or their accordingly diluted vehicule (DMSO) (for drug description and used concentration) during 1 h, then stimulated or not for 10 min or 24 h with 2% dialysed FBS. After 10 min and 24 h of FBS stimulation, heavy cells and light cells were maintained on ice, washed three times with cold PBS and lysed.
as §1

The subject of data set [3] is metastatic pancreatic cancer. Particulars: cited from earlier work.
Where [4] appears, read: monotherapy, gemcitabine-resistant metastatic pancreatic cancer patient.

As to `Cc1nc(NC(=O)N2CCC[C@H]2C(N)=O)sc1-c1csc(C(C)(C)C)n1` [A66], in data set [1] (EGF stimulation), the “RTK-driven (EGF) short-term phosphorylation of Akt” value is given as “inhibited”. For the same compound, the “pS473 and pT308Akt levels” value in data set [2] is on record as “significantly inhibited”.

Regarding `O=C1NC(=O)/C(=C/c2ccc(-c3ccc(F)cc3O)o2)S1` [AS-252424], the “GPCR-driven (LPA) short-term phosphorylation of Akt” value in data set [1] (LPA stimulation) is recorded as “inhibited”. Besides, the “pS473 and pT308Akt levels” value in data set [2] is recorded as “significantly inhibited”.

Regarding `CO[C@H]1C[C@@H]2CC[C@@H](C)[C@@](O)(O2)C(=O)C(=O)N2CCCC[C@H]2C(=O)O[C@H]([C@H](C)C[C@@H]2CC[C@@H](OCCO)[C@H](OC)C2)CC(=O)[C@H](C)/C=C(\C)[C@@H](O)[C@@H](OC)C(=O)[C@H](C)C[C@H](C)/C=C/C=C/C=C/1C` [RAD001], in data set [3] (setting [4]), the clinical action result is listed as “only a minimal clinical action” and the tolerability entry is listed as “well tolerated”.

Consider `Cc1cc(C(C)Nc2ccccc2)c2nc(N3CCOCC3)cc(=O)n2c1` (centres unmarked) [TGX-221], for which the “pS473 and pT308Akt levels” value in data set [2] was “significantly inhibited”.

`Nc1ccn([C@@H]2O[C@H](CO)[C@@H](O)C2(F)F)c(=O)n1` [gemcitabine]: the patient survival result in data set [3] (standard of line chemotherapy, pancreatic cancer patients) was “increases their survival of only a few weeks”.
